# Where a SMILES comes first, the peptide text is derived from it. [ ]: non-standard residue; d: D form. The star is where a group is joined. 12Ado = NCCCCCCCCCCCC(=O)O; Decanoyl = CCCCCCCCCC(=O)*; Dab = NCC[C@H](N)C(=O)O
# Legend:
# [1] = tested on: E. coli 25922; experiment: Peritonitis-sepsis infection model in neutropenic mice; format: in vivo; details: n = 10
# Procedure: (§1) The study is reported in accordance with ARRIVE guidelines.
# (§2) Lipopeptides potential application in monotherapy and/or combination-therapies was explored with two infection models. In the peritonitis-sepsis model, mice (n = 10 per group) were first rendered neutropenic by two intraperitoneal (I.P.) injections of 0.3 ml containing 150 mg/kg and 100 mg/kg cyclophosphamide, administered 4 days and 1 day before the experiment, respectively. […] Mice survival was recorded for up to 7 days. In a variant assay, bacteria in PBS (1.4 × 10^6) were pre-treated with 10 µM lipopeptides for 15 min, similarly administered, and mice survival was recorded for up to 3 days. In the urinary-tract infection (UTI) model, mice (N = 5 mice per group) were anesthetized by a single I.P. injection (0.2 ml) containing a mixture of ketamine (100 mg/kg) and xylazine (5 mg/kg). Following application of an analgesic 2% lidocaine gel on their penises, mice were infected intra-urethraly using a 24-gauge catheter with 1.2 × 10^8 CFU/mouse (0.05 ml) and treated with the vehicle control (S.C., 1 h post-infection), 2 mg/kg rifampin (oral gavage, immediately before anesthesia), 7.5 mg/kg q.i.d. lipopeptides (S.C., starting 1 h post-infection), or both. Mice were sacrificed 24 h post-infection, their bladder and kidneys aseptically excised, suspended in 5 ml of sterile PBS, homogenized for 3 min using a bench-top homogenizer, serially tenfold diluted in saline, plated on LB agar, and incubated over-night at 37 °C for enumeration.
# [2] = tested on: UPEC CFT073; experiment: Urinary-tract infection model; format: in vivo, mice
# Procedure: as §1, §2
# [3] = tested on: E. coli 25922; experiment: Growth / time-kill kinetics; format: cell-based, Escherichia coli; details: 10 µM C10BBc12B, 1 µg/ml erythromycin or 20 ng/ml rifampin alone
# Procedure: Antimicrobials mode of action was determined according to the rate of bacterial killing. Varying concentrations of lipopeptides, antibiotics and combinations thereof were mixed in LB medium with 5 × 10^5 CFU/ml of bacteria (final volume of 1 ml) and incubated at 37 °C with shaking. At the designated time-points aliquots were serially tenfold diluted in saline, plated on LB agar, and incubated over-night at 37 °C for enumeration.
# [4] = tested on: E. coli 25922; experiment: Outer membrane permeabilization, NPN fluorescence; format: cell-based, Escherichia coli
# Procedure: Lipopeptides ability to permeabilize the OM was evaluated using fluorescent measurements of N-phenyl-1-naphthylamine (NPN)[67]. 200 µl of an over-night culture were diluted into 10 ml of fresh LB medium and incubated at 37 °C with shaking until reaching O.D.600 nm = 0.5. The culture was then centrifuged at 10,000 RCF for 3 min, the supernatant aspirated, and the pellet resuspended in equal volume of 5 mM HEPES containing 5 mM glucose (pH = 7.2). This suspension was then mixed with NPN (5 mM in acetone) to reach a final NPN concentration of 10 µM. Then, 190 µl of this mixture were dispensed into black microtiter plates, mixed with 10 µl of HEPES containing serial twofold dilutions of lipopeptides and fluorescence (excitation: 360 nm; emission: 460 nm) was recorded immediately for up to 10 min at 37 °C with shaking[29] (BioTek Instruments Synergy HT; Winooski, VT, USA). In a modified version of this assay, in which efflux was inhibited, bacteria (similarly prepared) were incubated with the lipopeptides in presence or absence of 100 µM CCCP for 5 min. Samples were then twice centrifuged at 10,000 RCF for 3 min, the supernatant aspirated, and the pellet resuspended in equal volume of 5 mM HEPES containing 20 mM glucose (pH = 7.2), so as to re-energize the efflux machinery. NPN was then added (final concentration of 10 µM) and fluorescence was recorded immediately thereafter.
structure (smiles),measurement,setting,value
"CCCCCCCCCC(=O)N[C@@H](CCN)C(=O)N[C@@H](CCN)C(=O)NCCCCCCCCCCCC(=O)N[C@@H](CCN)C(N)=O [C10BBc12B, decanoyl-bis.diaminobutyrate-aminododecanoyl-diaminobutyrate-amide] (Decanoyl-[Dab][Dab][12Ado][Dab]-NH2)","survival rate, monotherapy","[1]; 1.7 × 10^6 CFU/mouse, […] C10BBc12B S.C. 1 h post-infection or 20 mg/kg rifampin oral gavage",40%
same,"efficacy, monotherapy, higher inoculum","[1]; 1.9 × 10^6 CFU/mouse, […] C10BBc12B S.C. or 20 mg/kg rifampin oral",virtually no efficacy
same,mice mortality after infection with bacteria pre-treated with lipopeptide,"[1]; modified model, 1.4 × 10^6 CFU/mouse pre-treated 15 min with 10 µM in PBS, I.P., three days",delayed the onset of mice mortality and reduced the overall lethality rate
same,bladder bacterial load,"[2]; 24 h post-infection, 2 mg/kg rifampin, 7.5 mg/kg q.i.d. C10BBc12B or both, n = 5",no reduction in bacterial load
same,efficacy of single dose regimen,"[2]; single dose 7.5 or […] 1 h post infection, alone or in combination with rifampin",essentially ineffective
same,"effect on bacterial proliferation, individual agent",[3],unable to significantly alter bacterial proliferation
same,reduction of NPN fluorescence by 10 mM MgCl2,[4],almost complete

# Reference: publication PMC9586926, “An efflux-susceptible antibiotic-adjuvant with systemic efficacy against mouse infections” (Scientific Reports, 2022)
